In series [1] the target is human CYP2D6 (Homo sapiens, UniProt P10635).
Series [2] has as its target T1, human CYP1A2 (Homo sapiens, UniProt P05177).
T1 sequence (P05177 1-516): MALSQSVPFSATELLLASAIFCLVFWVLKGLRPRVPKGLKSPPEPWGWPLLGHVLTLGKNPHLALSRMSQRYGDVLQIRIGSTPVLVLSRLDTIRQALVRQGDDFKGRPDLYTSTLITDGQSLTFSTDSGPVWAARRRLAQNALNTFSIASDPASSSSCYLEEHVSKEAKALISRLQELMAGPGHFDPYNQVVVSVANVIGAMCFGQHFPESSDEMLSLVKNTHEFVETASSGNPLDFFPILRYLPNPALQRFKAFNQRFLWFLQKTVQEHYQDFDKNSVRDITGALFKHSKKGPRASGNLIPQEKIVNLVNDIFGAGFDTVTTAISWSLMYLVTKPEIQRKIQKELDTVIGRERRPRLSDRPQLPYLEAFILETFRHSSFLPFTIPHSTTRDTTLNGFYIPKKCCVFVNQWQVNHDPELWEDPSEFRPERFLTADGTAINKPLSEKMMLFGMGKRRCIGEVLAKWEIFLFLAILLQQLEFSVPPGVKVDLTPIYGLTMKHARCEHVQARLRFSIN
The series can be described thus: biochemical.

For series [3], the target named is CYP3A4 (Homo sapiens, UniProt P08684). Description: biochemical.
CYP3A4, sequence (P08684 whole entry): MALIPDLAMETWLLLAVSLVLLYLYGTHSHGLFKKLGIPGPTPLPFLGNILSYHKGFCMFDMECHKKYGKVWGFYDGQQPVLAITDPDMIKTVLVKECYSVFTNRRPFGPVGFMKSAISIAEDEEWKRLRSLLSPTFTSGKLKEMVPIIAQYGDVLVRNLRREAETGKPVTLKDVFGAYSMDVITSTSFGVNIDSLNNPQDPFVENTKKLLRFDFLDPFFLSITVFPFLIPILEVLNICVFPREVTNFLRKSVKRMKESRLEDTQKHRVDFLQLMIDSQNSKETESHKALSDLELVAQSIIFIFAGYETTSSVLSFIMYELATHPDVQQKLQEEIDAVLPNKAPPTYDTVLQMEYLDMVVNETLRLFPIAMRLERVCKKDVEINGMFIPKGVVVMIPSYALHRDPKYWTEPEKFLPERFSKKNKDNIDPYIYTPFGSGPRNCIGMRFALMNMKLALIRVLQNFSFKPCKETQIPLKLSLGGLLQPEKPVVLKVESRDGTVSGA
Series [4] concerns the target T2, human CYP2C9 (Homo sapiens, UniProt P11712).
The target of series [5] is T3, human CYP2C19 (Homo sapiens, UniProt P33261). Description: biochemical.
T3 sequence (P33261 whole entry): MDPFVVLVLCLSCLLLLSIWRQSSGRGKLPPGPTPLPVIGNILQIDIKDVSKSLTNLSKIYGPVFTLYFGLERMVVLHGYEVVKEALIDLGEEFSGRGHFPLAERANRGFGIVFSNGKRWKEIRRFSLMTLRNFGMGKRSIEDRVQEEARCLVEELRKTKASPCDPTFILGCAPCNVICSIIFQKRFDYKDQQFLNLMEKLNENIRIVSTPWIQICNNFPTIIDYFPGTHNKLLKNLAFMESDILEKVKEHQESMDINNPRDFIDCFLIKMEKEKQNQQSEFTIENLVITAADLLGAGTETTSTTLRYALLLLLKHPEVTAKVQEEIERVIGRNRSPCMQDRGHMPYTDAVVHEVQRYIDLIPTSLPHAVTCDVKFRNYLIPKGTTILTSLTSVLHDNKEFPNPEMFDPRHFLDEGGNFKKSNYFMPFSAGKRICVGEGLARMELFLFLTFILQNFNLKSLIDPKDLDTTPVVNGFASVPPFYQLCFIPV
Series [6] has as its target Photinus pyralis (firefly) luciferase (Photinus pyralis, UniProt P08659). The series can be described thus: biochemical. The format is biochemical.
Series [7] has as its target T2, human CYP2C9. The series can be described thus: biochemical.
The target of series [8] is T1, human CYP1A2.
Series [9] concerns the target T3, human CYP2C19.
Setting [10] is: CYP1A2 IC50 (half-maximal inhibitory concentration).
The mark [11] stands for this setting: CYP3A4 IC50 (half-maximal inhibitory concentration).
[12] abbreviates: CYP2C19 IC50 (half-maximal inhibitory concentration).
Where [13] appears, read: CYP2C9 IC50 (half-maximal inhibitory concentration).
Setting [14] is: CYP1A2 AC50 (half-maximal activity concentration).
Setting [15] is: CYP3A4 AC50 (half-maximal activity concentration).
[16] abbreviates: CYP2C19 AC50 (half-maximal activity concentration).

Each structure is given as a SMILES string. pIC50: −log10 of the molar value. Structures can show the parent of a compound that is named as a salt. Where two headings read alike, the source gives them in different places.

Photinus pyralis (firefly) luciferase, sequence (P08659 whole entry): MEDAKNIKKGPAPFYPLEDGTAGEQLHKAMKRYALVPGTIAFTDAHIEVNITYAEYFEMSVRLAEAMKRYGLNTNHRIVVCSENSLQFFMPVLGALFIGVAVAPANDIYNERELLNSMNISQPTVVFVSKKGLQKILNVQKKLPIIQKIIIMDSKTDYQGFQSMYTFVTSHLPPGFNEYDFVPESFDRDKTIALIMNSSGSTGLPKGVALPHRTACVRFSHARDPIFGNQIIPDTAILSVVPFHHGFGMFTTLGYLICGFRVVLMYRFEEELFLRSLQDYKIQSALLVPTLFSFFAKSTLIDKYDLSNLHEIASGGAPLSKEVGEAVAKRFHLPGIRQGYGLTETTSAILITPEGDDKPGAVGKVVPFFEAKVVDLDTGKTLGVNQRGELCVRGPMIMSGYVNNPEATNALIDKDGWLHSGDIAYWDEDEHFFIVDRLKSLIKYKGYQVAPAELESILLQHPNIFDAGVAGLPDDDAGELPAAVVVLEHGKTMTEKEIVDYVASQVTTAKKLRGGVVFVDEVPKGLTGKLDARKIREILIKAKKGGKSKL
T2 sequence (P11712 whole entry): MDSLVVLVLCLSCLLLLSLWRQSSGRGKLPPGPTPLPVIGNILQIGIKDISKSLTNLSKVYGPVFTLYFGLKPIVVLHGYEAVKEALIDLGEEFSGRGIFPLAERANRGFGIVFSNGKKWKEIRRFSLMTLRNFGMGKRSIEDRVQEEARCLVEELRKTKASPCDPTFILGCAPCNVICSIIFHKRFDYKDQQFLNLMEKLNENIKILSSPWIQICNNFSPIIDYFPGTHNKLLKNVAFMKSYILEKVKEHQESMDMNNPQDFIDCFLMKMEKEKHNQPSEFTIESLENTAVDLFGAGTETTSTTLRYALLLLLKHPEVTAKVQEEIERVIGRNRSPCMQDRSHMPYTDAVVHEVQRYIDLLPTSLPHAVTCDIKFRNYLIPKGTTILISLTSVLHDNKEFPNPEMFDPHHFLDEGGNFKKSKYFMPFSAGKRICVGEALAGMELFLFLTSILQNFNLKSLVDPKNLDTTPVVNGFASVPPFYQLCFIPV
human CYP2D6, sequence (P10635 whole entry): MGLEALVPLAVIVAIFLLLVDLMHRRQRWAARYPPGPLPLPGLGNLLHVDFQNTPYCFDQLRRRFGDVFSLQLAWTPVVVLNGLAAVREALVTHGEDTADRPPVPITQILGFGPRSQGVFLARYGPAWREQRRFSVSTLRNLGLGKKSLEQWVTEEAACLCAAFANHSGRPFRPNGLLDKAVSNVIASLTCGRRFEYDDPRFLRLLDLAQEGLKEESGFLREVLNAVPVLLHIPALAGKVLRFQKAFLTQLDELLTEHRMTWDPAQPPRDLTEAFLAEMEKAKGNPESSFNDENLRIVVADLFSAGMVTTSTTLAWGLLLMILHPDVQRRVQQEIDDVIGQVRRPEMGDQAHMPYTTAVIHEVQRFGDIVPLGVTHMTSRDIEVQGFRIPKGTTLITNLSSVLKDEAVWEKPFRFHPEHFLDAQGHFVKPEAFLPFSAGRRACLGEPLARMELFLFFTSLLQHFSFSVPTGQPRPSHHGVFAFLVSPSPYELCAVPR

Consider `COc1ccc(COC(C)=O)cc1` [4-Methoxybenzyl acetate], for which, in series [1], the “CYP2D6 AC50 (half-maximal activity concentration)” value (“CYP2D6 AC50” below) was “Inactive”. Moreover, the AC50 (as a rule, the concentration at which the activity in the assay is half-maximal) in [2] amounted to 28.9 µM; in series [3], 40.8 µM; in series [5], 53.7 µM. Besides, the “CYP2C9 AC50 (half-maximal activity concentration)” value (shortened to “CYP2C9 AC50”) in series [4] is recorded as “Inactive”.
With `COc1ccc(-c2ccccc2)cc1NNC(=O)OC(C)C` [Bifenazate], the pIC50 (in general, the negative decadic logarithm of the IC50, by convention in mol/L) in series [2] (setting [10]) is 5.32; in [3] (setting [11]), 5.82; in series [5] (setting [12]), 6.31; in [7] (setting [13]), 5.63. Also, the “Luciferase IC50 (half-maximal inhibitory concentration)” value in series [6] was “Inactive”.
Turning to `CO/N=C(/C(=O)OC)c1ccccc1COc1ccccc1C` [Kresoxim-methyl], in series [1], the “CYP2D6 IC50 (half-maximal inhibitory concentration)” value is given as “Inactive”. The negative logarithm of the IC50 (pIC50) in series [2] (setting [10]) is 4.66; in series [3] (setting [11]), 5.02; in series [5] (setting [12]) it was 6.29; in [7] (setting [13]), 4.71. In addition, the “Luciferase IC50 (half-maximal inhibitory concentration)” value in series [6] is on record as “Inactive”.
With `Nc1ccc2c3c(cccc13)-c1ccccc1-2` [3-Aminofluoranthene], the “CYP2D6 IC50” value in series [1] is “Inactive”. Also, the pIC50 was 6.89 in series [2] (CYP1A2 IC50); 4.70 in series [3] (CYP3A4 IC50); 4.56 in [6]; 4.67 in [5] (CYP2C19 IC50); 4.46 in [7] (CYP2C9 IC50).
Regarding `O=c1c2ccccc2oc2ccccc12` [Xanthone], the “CYP2D6 IC50 (half-maximal inhibitory concentration)” value in series [1] is listed as “Inactive”. For the same molecule, the AC50 in series [2] came out at 0.5 µM; in series [3], 14.5 µM; in [5] it was 29.7 µM; in series [7], 35.7 µM. Moreover, the pIC50 in [2] was 6.30; in [6], 4.63; in [5] it was 4.53; in series [7], 4.45.
For `O=S1(=O)OCC2C(CO1)C1(Cl)C(Cl)=C(Cl)C2(Cl)C1(Cl)Cl` (centres unmarked) [Endosulfan sulfate], the “CYP2D6 IC50” value in [1] is recorded as “Inactive”. Further, the negative logarithm of the IC50 (pIC50) was 4.32 in series [2] (CYP1A2 IC50); 6.66 in series [3] (CYP3A4 IC50); 4.27 in series [6]; 5.65 in series [5] (CYP2C19 IC50); 4.73 in [7] (CYP2C9 IC50).
`O=C1c2ccccc2-c2ccccc21` [9-Fluorenone]: in [1], the “CYP2D6 IC50 (half-maximal inhibitory concentration)” value was “Inactive”. In addition, the AC50 in series [2] is 0.45 µM; in [3] it was 10.4 µM; in series [5], 43.8 µM; in series [7], 67.7 µM. The negative logarithm of the IC50 (pIC50) is 6.35 in series [2], 4.17 in series [6], 4.36 in series [5] and 4.17 in [7].
Take `CCN(Cc1c(F)cccc1Cl)c1c([N+](=O)[O-])cc(C(F)(F)F)cc1[N+](=O)[O-]` [Flumetralin]: the “CYP2D6 IC50 (half-maximal inhibitory concentration)” value in series [1] was “Inactive”. Also, the pIC50 is 6.42 in series [3] (setting [11]), 5.65 in series [5] (setting [12]) and 5.13 in series [7]. In series [6], the “Luciferase IC50 (half-maximal inhibitory concentration)” value is “Inactive”. The “CYP1A2 IC50 (half-maximal inhibitory concentration)” value in [8] was “Inactive”.
As for `COC(=O)COc1ccc(Cl)cc1Cl` [2,4-D-methyl], the “CYP2D6 AC50” value in series [1] is on record as “Inactive”. The AC50 was 15.4 µM in series [2] (setting [14]), 44 µM in series [3] (setting [15]) and 71.9 µM in series [5] (setting [16]). Further, the “CYP2C9 AC50” value in [4] was “Inactive”.
As for `C=CC(=O)OCCn1c(=O)n(CCOC(=O)C=C)c(=O)n(CCOC(=O)C=C)c1=O`, the “CYP2D6 IC50 (half-maximal inhibitory concentration)” value in series [1] is on record as “Inactive”. Moreover, the pIC50 was 4.24 in [2], 6.60 in series [3], 5.40 in series [5] and 4.45 in series [7]. Besides, in series [6], the “Luciferase IC50 (half-maximal inhibitory concentration)” value is reported as “Inactive”.
As for `CCNc1nc(NC(C)(C)C)nc(SC)n1` [Terbutryn], the “CYP2D6 AC50” value in [1] is on record as “Inactive”. In addition, the AC50 was found to be 7.74 µM in [2] (setting [14]), 11.5 µM in [3] (setting [15]) and 39.6 µM in [5] (setting [16]). In addition, in series [4], the “CYP2C9 AC50” value is given as “Inconclusive activator”.
In the case of `Cc1c2ccccc2c(C)c2c1ccc1ccccc12` [7,12-Dimethylbenz(a)anthracene], the “CYP2D6 IC50” value in series [1] was “Inactive”. Also, the pIC50 in series [2] (CYP1A2 IC50) was 6.30; in series [3] (CYP3A4 IC50), 4.65; in series [6], 4.49; in [5] (CYP2C19 IC50), 5.22; in series [7] (CYP2C9 IC50), 4.56.
For the molecule `COC(=O)C1=C(C)NC(C)=C(C(=O)OCCc2ccc(N3CCN(C(c4ccccc4)c4ccccc4)CC3)cc2)C1c1cccc([N+](=O)[O-])c1` (centres unmarked) [Watanidipine], in series [1], the “CYP2D6 IC50 (half-maximal inhibitory concentration)” value was “Inactive”. Further, the pIC50 in series [2] was 4.84; in series [3], 5.62; in series [5], 5.08; in [7], 6.31. Also, the “Luciferase IC50 (half-maximal inhibitory concentration)” value in series [6] is recorded as “Inactive”.
On to `CNC(=O)Oc1ccccc1C(C)C` [Isoprocarb], for which the “CYP2D6 AC50” value in series [1] is given as “Inactive”. The results for the AC50 in series [2] (setting [14]), in [3] (setting [15]) and in series [5] (setting [16]) were 35.6 µM, 49.3 µM and 63.5 µM, respectively. The “CYP2C9 AC50” value in series [4] is “Inconclusive inhibitor”.
For `O=C(Cc1ccccc1)c1ccccc1` [1,2-Diphenylethanone] the same measures were “Inconclusive inhibitor”, 12.6 µM, 7.68 µM, 12.8 µM and “Inconclusive inhibitor”.
For the molecule `COC(=O)N(C(=O)N1COC2(C(=O)OC)Cc3cc(Cl)ccc3C2=N1)c1ccc(OC(F)(F)F)cc1` (racemic) [(+-)-Indoxacarb], in series [1], the “CYP2D6 IC50 (half-maximal inhibitory concentration)” value is recorded as “Inactive”. For the same molecule, the results for the pIC50 in [3] (setting [11]), in series [5] (setting [12]) and in series [7] (setting [13]) were 5.22, 6.55 and 5.32, respectively. Moreover, in series [6], the “Luciferase IC50 (half-maximal inhibitory concentration)” value was “Inactive”. In addition, the “CYP1A2 IC50 (half-maximal inhibitory concentration)” value in [8] is given as “Inactive”.
Regarding `CC(=O)c1ccc2ccccc2c1` [2'-Acetonaphthone], the “CYP2D6 AC50” value in series [1] is recorded as “Inconclusive inhibitor”. Moreover, the AC50 was determined as 9.34 µM in [2] (setting [14]), 34.4 µM in series [3] (setting [15]) and 45 µM in series [5] (setting [16]). Besides, the “CYP2C9 AC50” value in series [4] is given as “Inactive”.
Consider `O=C1c2ccccc2C(=O)c2c(Cl)cccc21` [1-Chloroanthraquinone], for which, in series [1], the “CYP2D6 IC50 (half-maximal inhibitory concentration)” value is recorded as “Inactive”. For the same molecule, the AC50 in [2] turned out to be 0.05 µM; in series [3] it was 2.37 µM; in series [5], 13.9 µM; in series [7], 12.6 µM. The results for the pIC50 in [2], in series [5] and in [7] were 7.30, 4.86 and 4.90, respectively. In addition, the “Luciferase IC50 (half-maximal inhibitory concentration)” value in [6] was “Inactive”.
Consider `CCNc1nc(NCC)nc(SC)n1` [Simetryn], for which, in series [1], the “CYP2D6 AC50” value is on record as “Inactive”. The AC50 in series [2] (setting [14]) stood at 8.11 µM; in [3] (setting [15]), 46.2 µM. In [9], the “CYP2C19 AC50 (half-maximal activity concentration)” value is on record as “Inconclusive inhibitor”. In addition, in series [4], the “CYP2C9 AC50” value is listed as “Inconclusive activator”.
The matching figures for `O=[N+]([O-])c1ccccc1CCl` [2-Nitrobenzyl chloride]: “Inconclusive inhibitor”, 56.1 µM, 36.1 µM, “Inconclusive inhibitor” and “Inactive”.
As for `Cc1ccc2cc3c(ccc4ccccc43)c3c2c1CC3` [3-Methylcholanthrene], the “CYP2D6 IC50” value in [1] is “Inactive”. Moreover, the pIC50 in [2] (CYP1A2 IC50) is 6.41; in [3] (CYP3A4 IC50), 5.10; in [6], 5.16; in [5] (CYP2C19 IC50), 4.65; in series [7] (CYP2C9 IC50), 5.19.
Turning to `CCN(CC)C(=O)C(C)Oc1cccc2ccccc12` (centres unmarked) [Napropamide], the “CYP2D6 IC50 (half-maximal inhibitory concentration)” value in [1] is “Inactive”. Also, the pIC50 in [2] (setting [10]) is 4.60; in series [3] (setting [11]), 5.12; in series [5] (setting [12]), 6.18; in series [7] (setting [13]) it was 4.52. Further, the “Luciferase IC50 (half-maximal inhibitory concentration)” value in series [6] was “Inactive”.
Take `CC(=O)[C@H]1CC[C@H]2[C@@H]3CC[C@H]4C[C@](C)(O)CC[C@]4(C)[C@H]3CC[C@]12C` [Ganaxolone]: the “CYP2D6 AC50” value in [1] is given as “Inactive”. Further, the half-maximal activity concentration (AC50) in [2] (setting [14]) is 25.3 µM; in series [3] (setting [15]) it was 3.37 µM. The “CYP2C19 AC50 (half-maximal activity concentration)” value in series [9] was “Inactive”. In series [4], the “CYP2C9 AC50” value is listed as “Inactive”.

Values taken from paper PMC12155096 (International Journal of Molecular Sciences, 2025).
